Where two headings read alike, the source gives them in different places.
Tests used:
[1] = target: T1, RORγ ligand binding domain (LBD) (Homo sapiens, UniProt P51449); experiment: TR-FRET Activity Assay (ligand sensing, RORγ-LBD / coactivator peptide interaction, LANCE); format: biochemical
T1 construct: made in house; host or cells: E. coli BL-21 (BL3), vector pDEST15
T1 sequence (P51449 269-508 limits assumed): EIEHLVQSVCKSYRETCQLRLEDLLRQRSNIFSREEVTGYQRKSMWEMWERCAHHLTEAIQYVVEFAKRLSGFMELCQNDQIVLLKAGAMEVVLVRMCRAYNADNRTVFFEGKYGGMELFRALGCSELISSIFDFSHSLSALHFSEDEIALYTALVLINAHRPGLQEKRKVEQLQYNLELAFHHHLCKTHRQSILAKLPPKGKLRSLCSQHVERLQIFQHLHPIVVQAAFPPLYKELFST

RORγ = target: T2, RORγ (UniProt P51449); experiment: RORγ Gal4 Reporter Gene Assay in 293T cells (firefly and renilla luciferase); format: cell-based, human
T2 sequence (P51449 1-518): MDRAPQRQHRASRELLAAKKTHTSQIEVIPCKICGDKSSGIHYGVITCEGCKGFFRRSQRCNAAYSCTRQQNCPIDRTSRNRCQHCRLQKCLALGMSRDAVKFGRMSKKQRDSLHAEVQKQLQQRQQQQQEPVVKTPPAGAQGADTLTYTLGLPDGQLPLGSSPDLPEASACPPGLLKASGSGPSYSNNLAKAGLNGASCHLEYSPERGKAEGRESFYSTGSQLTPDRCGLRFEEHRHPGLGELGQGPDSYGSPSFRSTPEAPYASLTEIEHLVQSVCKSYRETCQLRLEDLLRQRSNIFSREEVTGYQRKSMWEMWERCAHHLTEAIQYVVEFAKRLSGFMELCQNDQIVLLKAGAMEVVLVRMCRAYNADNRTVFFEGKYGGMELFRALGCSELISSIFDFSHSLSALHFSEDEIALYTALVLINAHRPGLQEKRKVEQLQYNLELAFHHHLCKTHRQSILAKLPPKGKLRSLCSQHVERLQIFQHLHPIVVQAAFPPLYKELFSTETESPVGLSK

[2] = first value of the cell FRET/FF/REN, TR-FRET activity assay, read-out: pIC50 (FRET) (converted)
[3] = second value of the cell, Gal4 reporter gene assay in 293T cells, firefly luciferase
[4] = third value of the cell, Gal4 reporter gene assay in 293T cells, renilla normalised luciferase

SMILES | IC50 [1, 2] | pIC50 (FF) (RORγ; [3]) | pIC50 (REN) (RORγ; [4]) | IC50 [1] | pIC50 (FF) (RORγ) | pIC50 (REN) (RORγ)
Cc1c(C(=O)NC2COC2)cc(-c2cnc(OCC(C)(C)C)c(C(F)(F)F)c2)n1CC1CCCCC1 [9/13] | 1000 nM | 6.0 | 6.1 | – | – | –
Cc1c(C(=O)NCC(C)(C)CC(N)=O)cc(-c2cc(C(C)(C)C)c3c(c2)C2(CCO3)CC2)n1CC1CCCCC1 [17/20] | 398 nM | 7.1 | 7.1 | – | – | –
Cc1c(C(=O)NCC(C)(C)C(=O)O)cc(-c2cc(C(C)(C)C)c3c(c2)C(C)(C)C(=O)N3C)n1CC1CCCCC1 [17/49] | 2000 nM | 7.0 | 7.1 | – | – | –
COC(=O)C(C)(C)CCNC(=O)c1cc(-c2cc(C(C)(C)C)cc(C3(C)CC3)c2)n(CC2CCCCC2)c1C [17/153] | 316 nM | 6.7 | 6.7 | – | – | –
Cc1c(C(=O)N[C@H]2C[C@](C)(C(=O)O)C2)cc(-c2ccc(S(=O)(=O)NC(C)(C)C)c(C(F)F)c2)n1CC1CCCCC1 [17/170] | 316 nM | 6.8 | 7.0 | – | – | –
CC(=NO)c1cc(-c2cc(C(=O)NC3CCOCC3)c(C)n2CC2CCCCC2)cc(C(C)(C)C)c1 [18/1] | 794 nM | 7.5 | 7.7 | – | – | –
Cc1c(C(=O)NCCS(C)(=O)=O)cc(-c2cc(C(C)(C)O)cc(C3(C)CC3)c2)n1CC1CCCCC1 [17/317] | 2510 nM | 6.5 | 6.5 | – | – | –
Cc1c(C(=O)N[C@H]2C[C@H](C(=O)O)C2)cc(-c2cc(C(C)(C)C)cc(C(F)(F)F)c2)n1CC1CCCCC1 [17/304] | 1580 nM | 7.2 | 7.3 | – | – | –
CNC(=O)C(C)(C)CNC(=O)c1cc(-c2ccc(S(=O)(=O)NC(C)(C)C)c(C(F)(F)F)c2)n(CC2CCCCC2)c1C [17/204] | 794 nM | 6.7 | 6.8 | – | – | –
Cc1c(C(=O)N[C@H]2C[C@H](C(=O)O)C2)cc(-c2ccc(S(=O)(=O)NC(C)(C)C)c3ccccc23)n1CC1CCCCC1 [17/240] | 794 nM | 7.5 | 7.6 | – | – | –
Cc1c(C(=O)NC2CCOCC2)cc(-c2cc(C(=O)NC(C)(C)C)cc(C3(C)CC3)c2)n1CC1CCCCC1 [17/337] | 1000 nM | 7.7 | 7.8 | – | – | –
Cc1c(C(=O)N(C)CC2(CO)COC2)cc(-c2cc(C(C)(C)C)cc(C3(C)CC3)c2)n1CC1CCCCC1 [17/78] | – | – | – | 501 nM | 6.3/7.3/7.3 | 6.3/7.3/7.3
Cc1c(C(=O)NC2CCOCC2)cc(C2=NN(C(=O)NC(C)(C)C)C3(CCCCC3)C2)n1CC1CCCCC1 [Example 24, N-(tert-Butyl)-3-(1-(cyclohexylmethyl)-5-methyl-4-((tetrahydro-2H-pyran-4-yl)carbamoyl)-1H-pyrrol-2-yl)-1,2-diazaspiro[4.5]dec-2-ene-1-carboxamide] | 3160 nM | 6.4 | 6.4 | – | – | –
Cc1c(C(=O)NC2CCOCC2)cc(-c2ccc(-c3cnn(C(C)(C)C)c3)c(C(C)(C)C)c2)n1CC1CCCCC1 [26/2] | 200 nM | 7.2 | 7.2 | – | – | –
Cc1c(C(=O)NC23CCC(C(=O)O)(CC2)CC3)cc(-c2ccc(S(=O)(=O)NC(C)(C)C)c(C(F)(F)F)c2)n1CC1CCCCC1 [17/182] | – | – | – | 501 nM | 6.3/7.8/7.9 | 6.3/7.8/7.9
Cc1c(C(=O)NC2CCOCC2)cc(-c2ccc(S(=O)(=O)NC(C)(C)C)c(C(F)(F)F)c2)n1[C@H](C)C1CCCCC1 [17/254] | 631 nM | 6.6 | 6.6 | – | – | –
Cc1c(C(=O)NC2CCOCC2)cc(-c2ccc(S(=O)(=O)NC(C)(C)CC(F)(F)F)c(C(F)(F)F)c2)n1CC1CCCCC1 [17/143] | 126 nM | 8.2 | 8.2 | – | – | –

SMILES | IC50 [1, 2] | pIC50 (FF) (RORγ; [3]) | pIC50 (REN) (RORγ; [4]) | IC50 [1] | pIC50 (FF) (RORγ) | pIC50 (REN) (RORγ)
COC(C)(C)c1cc(-c2c(Cl)c(C(=O)N[C@H]3C[C@H](C(=O)O)C3)c(C)n2CC2CCCCC2)cc(C2(C)CC2)c1 [29/2] | 2510 nM | 7.3 | 7.1 | – | – | –
Cc1c(C(=O)NC2COC2)cc(-c2cc(C(C)(C)C)cc(C(C)(C)C)c2)n1S(=O)(=O)N(C)C1CCCCC1 [7/5] | – | – | – | 316 nM | 6.5/6.3/6.4 | 6.5/6.3/6.4
Cc1c(C(=O)NC2CCOCC2)cc(-c2ccc(S(=O)(=O)NC(C)(C)CCF)c(C(F)(F)F)c2)n1CC1CCCCC1 [18/2] | 251 nM | 8.0 | 8.2 | – | – | –
Cc1c(C(=O)N[C@H]2C[C@H](C(=O)O)C2)cc(-c2ccc(S(=O)(=O)NC(C)(C)C)c3sccc23)n1CC1CCCCC1 [17/184] | 794 nM | 6.9 | 7.1 | – | – | –
Cc1c(S(=O)(=O)NC(C)(C)C)ccc(-c2cc(C(=O)NCC(C)(C)C(N)=O)c(C)n2CC2CCCCC2)c1Cl [17/371] | 631 nM | 8.0 | 8.0 | – | – | –
Cc1c(C(=O)NCCC(C)(C)C(=O)O)cc(-c2ccc(S(=O)(=O)NC(C)(C)C)c(C(F)(F)F)c2)n1CC1CCCCC1 [17/222] | 631 nM | 7.4 | 7.5 | – | – | –
Cc1c(C(=O)NCCCCCO)cc(-c2cc(C(C)(C)C)c3c(c2)C2(CCO3)CC2)n1CC1CCCCC1 [1/40] | – | – | – | 251 nM | 6.6/7.5/7.6 | 6.6/7.5/7.6
CCN(C(C)(C)C)S(=O)(=O)c1ccc(-c2cc(C(=O)NC3CCOCC3)c(C)n2CC2CCCCC2)cc1C(F)(F)F [17/85] | – | – | – | > 20000 nM | <4.7/7.4/7.5 | <4.7/7.4/7.5
Cc1c(C(=O)NC2COC2)cc(-c2cc(C(=O)NC(C)C)cc(C(C)(C)C)c2)n1CC1CCCCC1 [15/6] | 1260 nM | 7.4 | 7.4 | – | – | –
Cc1c(C(=O)NC2COC2)cc(-c2cc(C(C)(C)C)cc(C(C)(C)C)c2)n1S(=O)(=O)N1CC(C)CC(C)C1 (stereo not drawn) [7/3] | 251 nM | 6.6 | 6.7 | – | – | –
Cc1c(S(=O)(=O)NC(C)(C)C)ccc(-c2cc(C(=O)N[C@H]3C[C@H](C(=O)O)C3)c(C)n2CC2CCCCC2)c1Cl [17/275] | 631 nM | 7.0 | 7.0 | – | – | –
Cc1c(C(=O)NC2CCOCC2)cc(-c2ccc(S(=O)(=O)N3CCCC(C(F)(F)F)C3)c(C(C)(C)C)c2)n1CC1CCCCC1 (stereo not drawn) [17/102] | – | – | – | 251 nM | 6.6/6.8/6.9 | 6.6/6.8/6.9
Cc1c(C(=O)NCC(C)(C)O)cc(-c2cc(C(C)(C)C)c3c(c2)C(C)(C)CO3)n1CC1CCCCC1 [17/86] | 316 nM | 7.1 | 7.1 | – | – | –
Cc1c(C(=O)NC2CCOCC2)cc(-c2ccc(S(=O)(=O)NC(C)(C)C)c(Cl)c2)n1CC1CCCCC1 [17/234] | 200 nM | 7.1 | 7.2 | – | – | –
Cc1c(C(=O)NCC2(C)COC2)cc(-c2cc(C(C)(C)C)cc(C(C)(C)C)c2)n1CC1CCCCC1 [1/2] | – | – | – | 126 nM | 6.9/7.5/7.4 | 6.9/7.5/7.4
Cc1c(C(=O)NCCCS(C)(=O)=O)cc(-c2cc(C(C)(C)C)c3c(c2)C2(CCO3)CC2)n1CC1CCCCC1 [17/80] | 501 nM | 6.9 | 7.0 | – | – | –
Cc1c(C(=O)N[C@H]2C[C@H](C(=O)O)C2)cc(-c2cc(C(C)(C)C)cc(C(C)(C)C)c2OC(F)F)n1CC1CCCCC1 [17/193] | 2510 nM | 6.9 | 7.0 | – | – | –

— US9815851B2, “Pyrrolo carboxamides as modulators of orphan nuclear receptor RAR-related orphan receptor-gamma (RORγ, NR1F3) activity and for the treatment of chronic inflammatory and autoimmune diseases” (PHENEX PHARMACEUTICALS AG, priority 2011, dated 2017)
